# Assay results reported in ChEMBL document CHEMBL4041504, “Differential characterization using readily accessible NMR experiments of novel N- and O-alkylated quinolin-4-ol, 1,5-naphthyridin-4-ol and quinazolin-4-ol derivatives with antimycobacterial activity” (Eur J Med Chem, 2017).
# Tests used:
# [1] = tested on: Mycobacterium tuberculosis; experiment: microbe, parasite or virus in culture; details: H37Rv ATCC 25618, 144 h
# Description: Antimycobacterial activity against Mycobacterium tuberculosis H37Rv ATCC 25618 after 6 days by resazurin dye based assay
# [2] = tested on: HepG2; experiment: Cytotoxicity against human HepG2 cells assessed as reduction in cell viability after 48 hrs by CellTiter Glo assay; assay type: cell-based; details: HepG2, 48 h
# [3] = Lipophilicity, log D of the compound at pH 7.4 by chromatographic method; assay type: physicochemical; details: buffer
# [4] = Kinetic aqueous solubility of the compound by chemiluminescent nitrogen detection assay; assay type: physicochemical; details: read-out: Kinetic_solubility
# [5] = Permeability of the compound by PAMPA; assay type: physicochemical; details: read-out: permeability
SMILES,MIC [1] [µM],IC50 [2] [µM],chromatographic logD [3],solubility kinetic [4] [µM],Papp [5] [×10⁻⁶ cm/s]
COc1ccc2nc(C)cc(OCC(=O)Nc3cc(C)cc(C)c3)c2c1,1.9,20,,,
COc1ccc2nccc(OCC(=O)Nc3cc(C)cc(C)c3)c2c1,10,50.1,5.3,51,28
Cc1cc(C)cc(NC(=O)Cn2ccc(=O)c3ccccc32)c1,> 250,63.1,3.54,34,45
COc1ccc2nc(C)n(CC(=O)Nc3cc(C)cc(C)c3)c(=O)c2c1,250,> 100,4.77,74,58
COc1ccc2nc(C)cc(OCC(=O)Nc3cc(C)cc(C)c3)c2n1,3.8,> 100,5.57,19,51
Cc1cc(C)cc(NC(=O)COc2ccnc3ccccc23)c1,> 80,> 100,5.03,59,46
Cc1cc(C)cc(NC(=O)Cn2ccc(=O)c3ccc(Cl)cc32)c1,> 250,100,4.39,86,26
COc1ccc2c(c1)c(=O)ccn2CC(=O)Nc1cc(C)cc(C)c1,> 250,> 100,3.72,30,19
COc1ccc2ncn(CC(=O)Nc3cc(C)cc(C)c3)c(=O)c2c1,> 250,> 100,4.5,8,
COc1ccc2nc(C)nc(OCC(=O)Nc3cc(C)cc(C)c3)c2c1,1.25,> 100,5.59,3,37
Cc1cc(C)cc(NC(=O)Cn2cnc3ccccc3c2=O)c1,> 250,79.4,4.29,20,60
NNC(=O)c1ccncc1 [ISONIAZID],3.6,,,,
